Assay results as given in patent publication US6395684B1, “Selective herbicides based on a substituted phenyl sulfonyl amino carbonyl triazolinone” (Bayer Aktiengesellschaft, priority 1998, dated 2002).
Where a name gives a salt, the structure may show the parent alone.

Legend:
Type in all cases: in vivo
[1] = tested on: weeds, such as, for example, Agropyron, Alopecurus, Avena, Bromus, Lolium, Poa, Setaria and Sinapis; experiment: Pre-emergence test/greenhouse, summary for weeds; details: greenhouse
Experimental: (§1) Pre-emergence Test/greenhouse Solvent: 5 parts by weight of acetone Emulsifier: 1 part by weight of alkylaryl polyglycol ether To produce a suitable preparation of active compound, 1 part by weight of active compound is mixed with the stated amount of solvent, the stated amount of emulsifier is added and the concentrate is diluted with water to the desired concentration. Seeds of the test plants are sown in normal soil. After about 24 hours, the soil is sprayed with the preparation of active compound such that the particular amount of active compound desired is applied per unit area. The concentration of the spray liquor is chosen so that the particular amount of active compound desired is applied in 500 litres of water per hectare. After three weeks, the degree of damage to the plants is tested in % damage in comparison to the development of the untreated control.

[2] = tested on: weeds, such as, for example, Agropyron, Alopecurus, Avena, Bromus and Lolium; experiment: Post-emergence test/greenhouse, summary for weeds; details: greenhouse
Experimental: Post-emergence Test/greenhouse Solvent: 5 parts by weight of acetone Emulsifier: 1 part by weight of alkylaryl polyglycol ether To produce a suitable preparation of active compound, 1 part by weight of active compound is mixed with the stated amount of solvent, the stated amount of emulsifier is added and the concentrate is diluted with water to the desired concentration. Test plants which have a height of 5-15 cm are sprayed with the preparation of active compound such that the particular amounts of active compound desired are applied per unit area. The concentration of the spray liquor is chosen so that the particular amounts of active compound desired are applied in 500 l of water/ha. After three weeks, the degree of damage to the plants is assessed in % damage in comparison to the development of the untreated control. […] [“ai.”=“active ingredient”].

[3] = tested on: Alopecurus; experiment: Post-emergence test/greenhouse; details: greenhouse, after three weeks
Experimental: (§2) Post-emergence Test/greenhouse Solvent: 5 parts by weight of acetone Emulsifier: 1 part by weight of alkylaryl polyglycol ether To produce a suitable preparation of active compound, 1 part by weight of active compound is mixed with the stated amount of solvent, the stated amount of emulsifier is added and the concentrate is diluted with water to the desired concentration. Test plants which have a height of 5-15 cm are sprayed with the preparation of active compound such that the particular amounts of active compound desired are applied per unit area. The concentration of the spray liquor is chosen so that the particular amounts of active compound desired are applied in 500 l of water/ha. After three weeks, the degree of damage to the plants is assessed in % damage in comparison to the development of the untreated control. The figures denote: 0%=no effect (like untreated control) 100% total destruction

[4] = tested on: Bromus; experiment: Post-emergence test/greenhouse; details: greenhouse, after three weeks
Experimental: as §2

[5] = tested on: Agropyron; experiment: Post-emergence test/greenhouse; details: greenhouse, after three weeks
Experimental: as §2

[6] = tested on: Wheat; experiment: Post-emergence test/greenhouse; details: greenhouse; for degree of damage to the plants (% damage in comparison to the untreated control): Wheat, after three weeks; for compatibility with crop plants (wheat), in words: sodium salt of (I) at 60 g/ha
Experimental: as §2

[7] = tested on: Lolium; experiment: Post-emergence test/greenhouse; details: greenhouse, after three weeks
Experimental: as §2

[8] = tested on: Avena; experiment: Post-emergence test/greenhouse; details: greenhouse, after three weeks
Experimental: as §2

[9] = tested on: Poa; experiment: Pre-emergence test/greenhouse; details: 15 g ai./ha, greenhouse, after three weeks
Experimental: as §1, with “control. The figures denote: 0% no effect (like untreated control) 100%=total destruction” for “control.”

[10] = tested on: Agropyron; experiment: Pre-emergence test/greenhouse; details: 15 g ai./ha, greenhouse, after three weeks
Experimental: as §1, with “control. The figures denote: 0% no effect (like untreated control) 100%=total destruction” for “control.”

[11] = tested on: Wheat; experiment: Pre-emergence test/greenhouse; details: greenhouse; for degree of damage to the plants (% damage in comparison to the untreated control): Wheat, after three weeks
Experimental: as §1, with “control. The figures denote: 0% no effect (like untreated control) 100%=total destruction” for “control.”

[12] = tested on: Sinapis; experiment: Pre-emergence test/greenhouse; details: 15 g ai./ha, greenhouse, after three weeks
Experimental: as §1, with “control. The figures denote: 0% no effect (like untreated control) 100%=total destruction” for “control.”

[13] = tested on: Amaranthus; experiment: Pre-emergence test/greenhouse; details: 15 g ai./ha, greenhouse, after three weeks
Experimental: as §1, with “control. The figures denote: 0% no effect (like untreated control) 100%=total destruction” for “control.”

[14] = tested on: Avena; experiment: Pre-emergence test/greenhouse; details: greenhouse, after three weeks
Experimental: as §1, with “control. The figures denote: 0% no effect (like untreated control) 100%=total destruction” for “control.”

[15] = tested on: Alopecurus; experiment: Pre-emergence test/greenhouse; details: greenhouse, after three weeks
Experimental: as §1, with “control. The figures denote: 0% no effect (like untreated control) 100%=total destruction” for “control.”

[16] = tested on: Bromus; experiment: Pre-emergence test/greenhouse; details: greenhouse, after three weeks
Experimental: as §1, with “control. The figures denote: 0% no effect (like untreated control) 100%=total destruction” for “control.”

[17] = tested on: Lolium; experiment: Pre-emergence test/greenhouse; details: 500 g ai./ha, greenhouse, after three weeks
Experimental: as §1, with “control. The figures denote: 0% no effect (like untreated control) 100%=total destruction” for “control.”

[18] = tested on: Setaria; experiment: Pre-emergence test/greenhouse; details: 500 g ai./ha, greenhouse, after three weeks
Experimental: as §1, with “control. The figures denote: 0% no effect (like untreated control) 100%=total destruction” for “control.”

| Structure (SMILES) | herbicidal activity (in words, compared with the sodium salt of (I)) [1] | herbicidal activity (in words, compared with the sodium salt of (I)) [2] | degree of damage to the plants (% damage in comparison to the untreated control) ([3]; 60 g ai./ha) | degree of damage to the plants (% damage in comparison to the untreated control) ([4]; 60 g ai./ha) | degree of damage to the plants (% damage in comparison to the untreated control) ([5]; 60 g ai./ha) | degree of damage to the plants (% damage in comparison to the untreated control) ([6]; 60 g ai./ha) | degree of damage to the plants (% damage in comparison to the untreated control) ([7]; 60 g ai./ha) | degree of damage to the plants (% damage in comparison to the untreated control) ([8]; 60 g ai./ha) | compatibility with crop plants (wheat), in words [6] | degree of damage to the plants (% damage in comparison to the untreated control) [9] | degree of damage to the plants (% damage in comparison to the untreated control) [10] | degree of damage to the plants (% damage in comparison to the untreated control) ([11]; 15 g ai./ha) | degree of damage to the plants (% damage in comparison to the untreated control) [12] | degree of damage to the plants (% damage in comparison to the untreated control) [13] | degree of damage to the plants (% damage in comparison to the untreated control) ([14]; 15 g ai./ha) | other results |
| --- | --- | --- | --- | --- | --- | --- | --- | --- | --- | --- | --- | --- | --- | --- | --- | --- |
| COC(=O)c1ccccc1S(=O)(=O)NC(=O)n1nc(OC(C)C)n(C)c1=O.[Na] [(C), 2-(2-Methoxycarbonyl-phenylsulphonylaminocarbonyl)-4-methyl-5-isopropoxy-2,4-dihydro-3H-1,2,4-triazol-3-one-sodium salt] | considerably weaker herbicidal activity | considerably weaker herbicidal activity | 70% | 70% | 60% | 0% | 70% | 50% | – | – | – | – | – | – | – | – |
| CCOc1nn(C(=O)NS(=O)(=O)c2ccccc2C(=O)OC)c(=O)n1C [(B), 2-(2-Methoxycarbonyl-phenylsulphonylaminocarbonyl)-4-methyl-5-ethoxy-2,4-dihydro-3H-1,2,4-triazol-3-one-sodium salt] | – | – | – | – | – | – | – | – | not entirely compatible with wheat | 70% | 40% | 40% | 70% | 70% | 60% | degree of damage to the plants (% damage in comparison to the untreated control) ([3]; 30 g ai./ha): 90%; degree of damage to the plants (% damage in comparison to the untreated control) ([4]; 30 g ai./ha): 80%; degree of damage to the plants (% damage in comparison to the untreated control) ([5]; 30 g ai./ha): 90%; degree of damage to the plants (% damage in comparison to the untreated control) ([6]; 30 g ai./ha): 60%; degree of damage to the plants (% damage in comparison to the untreated control) ([7]; 30 g ai./ha): 90%; degree of damage to the plants (% damage in comparison to the untreated control) ([8]; 30 g ai./ha): 90%; compatibility with crop plants (wheat), in words ([11]; sodium salt of (I) at 15 g/ha to 60 g/ha): not entirely compatible with wheat |
| CCCOc1nn(C(=O)NS(=O)(=O)c2ccccc2C(=O)OCC)c(=O)n1C [(D), 2-(2-Ethoxycarbonyl-phenylsulphonylaminocarbonyl)-4-methyl-5-propoxy-2,4-dihydro-3H-1,2,4-triazol-3-one] | considerably weaker herbicidal activity | considerably weaker herbicidal activity | – | 80% | 70% | 0% | 30% | 20% | – | – | – | – | – | – | – | – |
| CCCCOc1nn(C(=O)NS(=O)(=O)c2ccccc2C(=O)OC)c(=O)n1C [(A), 2-(2-Methoxycarbonyl-phenylsulphonylaminocarbonyl)-4-methyl-5-butoxy-2,4-dihydro-3H-1,2,4-triazol-3-one] | considerably weaker herbicidal activity | considerably weaker herbicidal activity | 0% | 0% | 0% | 0% | 0% | 50% | – | – | – | – | – | – | – | degree of damage to the plants (% damage in comparison to the untreated control) ([15]; 500 g ai./ha): 20%; degree of damage to the plants (% damage in comparison to the untreated control) ([16]; 500 g ai./ha): 30%; degree of damage to the plants (% damage in comparison to the untreated control) ([11]; 500 g ai./ha): 0%; degree of damage to the plants (% damage in comparison to the untreated control) [17]: 0%; degree of damage to the plants (% damage in comparison to the untreated control) ([14]; 500 g ai./ha): 0%; degree of damage to the plants (% damage in comparison to the untreated control) [18]: 0% |
| CCCOc1nn(C(=O)NS(=O)(=O)c2ccccc2C(=O)OC)c(=O)n1CC [(F), 2-(2-Methoxycarbonyl-phenylsulphonylaminocarbonyl)-4-ethyl-5-propoxy-2,4-dihydro-3H-1,2,4-triazol-3-one] | considerably weaker herbicidal activity | considerably weaker herbicidal activity | 50% | 50% | 50% | 20% | 30% | 40% | not entirely compatible with wheat | 0% | 0% | 0% | 70% | 70% | 0% | degree of damage to the plants (% damage in comparison to the untreated control) ([15]; 15 g ai./ha): 40%; degree of damage to the plants (% damage in comparison to the untreated control) ([16]; 15 g ai./ha): 20% |
| CCCOn1c(C)nn(C(=O)NS(=O)(=O)c2ccccc2C(=O)OC)c1=O [(E), 2-(2-Methoxyxcarbonyl-phenylsulphonylaminocarbonyl)-4-propoxy-5-methyl-2,4-dihydro-3H-1,2,4-triazol-3-one] | considerably weaker herbicidal activity | considerably weaker herbicidal activity | – | – | – | – | – | – | – | – | – | – | – | – | – | degree of damage to the plants (% damage in comparison to the untreated control) ([3]; 250 g ai./ha): 70%; degree of damage to the plants (% damage in comparison to the untreated control) ([4]; 250 g ai./ha): 50%; degree of damage to the plants (% damage in comparison to the untreated control) ([6]; 250 g ai./ha): 0%; degree of damage to the plants (% damage in comparison to the untreated control) ([7]; 250 g ai./ha): 50%; degree of damage to the plants (% damage in comparison to the untreated control) ([8]; 250 g ai./ha): 0% |
